According to the supplement of paper PMC10307832:

How the values were obtained:
[1] = compound: C=CC(=O)Nc1cc(-n2c(=O)ccc3cnc4ccc(-c5ccc(NS(C)(=O)=O)cc5)cc4c32)ccc1C [BMX-IN-1] + CCNC(=O)c1noc(-c2cc(C(C)C)c(O)cc2O)c1-c1ccc(CN2CCOCC2)cc1 [Luminespib] (partner 0.01 µM); assay: relative viability (nuclei count vs DMSO), 5 days (fraction); higher = more cells survive
Procedure, shortened: (§1)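 Values are medians from duplicate plates. Each reflects relative viability, defined as the nuclei count of treated wells over that of vehicle wells. Lung cancer cell lines in 1536-well plates were pin-tool dosed one day after seeding with one drug alone or with a fixed anchor-drug dose plus five library-drug doses (not always all listed) in √10 steps, then fixed, stained and imaged at 4× after 5 days.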

[2] = compound: C=CC(=O)N1CCC[C@@H](n2nc(-c3ccc(Oc4ccccc4)cc3)c3c(N)ncnc32)C1 [Ibrutinib] + CC1(C)CCC(c2ccc(Cl)cc2)=C(CN2CCN(c3ccc(C(=O)NS(=O)(=O)c4ccc(N[C@H](CCN5CCOCC5)CSc5ccccc5)c(S(=O)(=O)C(F)(F)F)c4)cc3)CC2)C1 [Navitoclax] (partner 0.5 µM); assay: as above
Procedure, shortened: as §1

Cell Line	relative viability ([1]; first compound 0.02 µM)	relative viability ([1]; first compound 0.2 µM)	relative viability ([1]; first compound 0.6325 µM)	relative viability ([1]; first compound 2 µM)	relative viability ([2]; first compound 0.005 µM)	relative viability ([2]; first compound 0.01581 µM)	relative viability ([2]; first compound 0.05 µM)	relative viability ([2]; first compound 0.5 µM)	relative viability ([2]; first compound 0.1581 µM)
NCI-H1993	0.854	0.805	0.829	0.737	0.807	0.7	0.75	0.742	
NCI-H2009	1.11	1.09	1.06	1.08	1.13	1.12	1.22	1.16	1.21
NCI-H2023	1.06	1.03	0.774	0.739	1.02	0.919	0.884	0.871	1.07
NCI-H2085	0.404	0.389	0.401	0.406	1.1	1.13	1		1.13
NCI-H2087	0.192	0.179	0.188	0.133	1.05	0.952	1.12	0.939	1
NCI-H2126	1	0.974	1.17	0.909		0.803	0.801	0.588	0.861
NCI-H2170	0.921	0.77	0.821	0.819	0.377	0.343	0.235	0.195	0.527
NCI-H2228	0.176	0.138	0.108	0.13	0.859	0.838	0.932	0.836	0.911
NCI-H2342	0.774	0.765	0.707	0.703					
NCI-H2347	0.438	0.356	0.517	0.353	0.898	0.724	0.846	0.717	0.729
NCI-H2405	0.747	0.754	0.669	0.674	0.923	0.812	0.731	0.98	
NCI-H3122	0.114	0.0826	0.103	0.0683	1.06	0.971	1.06	1.06	0.956
PC-3 [JPC-3]	0.82	0.757	0.709	0.68	0.82	0.805	0.598	0.488	0.824
PC-14	0.184	0.107	0.14	0.152	1.04	1.05	1.12	0.922	1.05
RERF-LC-KJ	1.3	1.55	1.27	1.49	0.872		0.699	0.677	0.745
SK-LU-1	0.172	0.194	0.189	0.196	0.722	0.637	1.07	0.036	0.948
SW 900	0.172	0.182	0.165	0.179					
SW 1573	0.28	0.221	0.225	0.205	0.904	0.857	1.01	0.848	0.95
UMC-11	1.17	1.24	1.19	1.03	0.308	0.305	0.292	0.374	0.298
